Measurements from patent publication US5070210A, “Novel ketenimines as intermediates for insecticides” (ICI Americas Inc., priority 1990, dated 1991).

Experiments:
Assay type in all cases: in vivo
[1] = system: Housefly [Musca domestica]; experiment: Housefly insecticidal test; settings: μg per 25 female flies; mortality after 48 hours
Method in brief: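 Dose range started at 100 μg per 25 female flies and went downward. Insects (1-2 days old) contacted a dried acetone/peanut-oil deposit in dishes; LC50 values come from dosage-mortality curves at 48 h.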

[2] = system: Tobacco Budworm [Heliothis virescens (Fabricius)] eggs; experiment: Tobacco budworm egg test; settings: 2-day old eggs, percent in solution
Method in brief: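 Step 1: dip 2-day old egg patches in acetone test solutions (top concentration 0.1%). Step 2: hold in dishes with rearing medium at 78° F. Step 3: record mortality after control hatch and feeding.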

[3] = system: Cabbage Looper [Trichoplusia ni (Hubner)]; experiment: Cabbage looper insecticidal test; settings: second-instar larvae, percent in solution; 3-5 days
Method in brief: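 Squash cotyledons dipped in test solution (acetone-water 50-50, ≤0.1%), dried, offered to 5 second-instar larvae; mortality after 3-5 days gives LC50.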

[4] = system: Maize weevil [Sitophilus Zeamais (Motschulsky)]; experiment: Maize weevil insecticidal test; settings: adult weevils, percent in solution; 48 hours
Procedure: The compounds in Tables 1 and 2 above were tested for insecticidal activity using the following testing procedures. LC50 values, based on the results of these tests and calculated according to dosage-mortality curves, are expressed in Table 3.
Maize weevil [Sitophilus Zeamais (Motschulsky)]:
Test compounds were diluted in a 50:50 acetone:water solution. Four corn seeds [Zea mays (L.)] which had been immersed in test solutions for 2-3 seconds and allowed to dry were placed in containers together with 10 adult weevils. The containers were covered and kept at a temperature of about 25° C. Mortality was recorded after 48 hours. Test concentrations ranged from 0.01% down to that at which 50% mortalilty occurred. The LC50 values are expressed below in Table 3 under the heading "MW" in terms of percent of the test compound in solution.

Row | SMILES | LC50, HF [1] | LC50, TBW, E (TBW-E) [2] | LC50, CL [3] | LC50, MW [4]
1 | CC(C)C(=Nc1ccc(Br)c(Br)c1)OCc1ccc(F)c(Oc2ccccc2)c1 [Compound 384] | < 100 µg | 0.025% | > 0.1% | > 0.01%
2 | CC(C)C(=Nc1ccc(I)c(Cl)c1)OCc1ccc(F)c(Oc2ccc(F)cc2)c1 [Compound 385] | < 100 µg | > 0.1% | > 0.1% | > 0.01%
3 | CC(C)C(=Nc1cccc(Br)c1)OCc1ccc(F)c(Oc2ccc(Cl)cc2)c1 [Compound 386] | < 100 µg | > 0.1% | 0.0012% | > 0.01%
4 | CC(C)C(=Nc1ccc(Cl)c(C(F)(F)F)c1)OCc1ccc(F)c(Oc2ccccc2)c1 [Compound 388] | < 100 µg | > 0.1% | 0.0012% | > 0.01%
5 | CC(C)C(=Nc1cccc(I)c1)OCc1cccc(Oc2ccc(Cl)cc2)c1 [Compound 389] | < 100 µg | > 0.1% | 0.00069% | > 0.01%
6 | CC(C)C(=Nc1cccc(Cl)c1)OCc1ccc(F)c(Oc2ccc(Cl)cc2)c1 [Compound 390] | < 100 µg | 0.045% | 0.0021% | > 0.01%
7 | CC(C)C(=Nc1ccc(C#N)cc1)OCc1ccc(F)c(Oc2ccc(Cl)cc2)c1 [Compound 392] | < 100 µg | 0.039% | 0.00034% | > 0.01%
8 | CC(C)C(=Nc1ccc(C#N)cc1)OCc1cccc(Oc2ccc(Cl)cc2)c1 [Compound 393] | < 100 µg | > 0.1% | 0.00037% | > 0.01%
9 | CC(C)C(=Nc1ccc(C#N)cc1)OCc1ccc(F)c(Oc2ccc(F)cc2)c1 [Compound 394] | < 100 µg | 0.05% | 0.00025% | > 0.01%
10 | CC(C)C(=Nc1ccc(F)c(Cl)c1F)OCc1ccc(F)c(Oc2ccc(Cl)cc2)c1 [Compound 395] | 8.6 µg | 0.018% | < 0.1% | 0.004%
11 | Cc1cc(N=C(OCc2ccc(F)c(Oc3ccc(F)cc3)c2)C(C)C)ccc1F [Compound 396] | < 100 µg | < 0.1% | 0.0017% | > 0.01%
12 | Cc1cc(N=C(OCc2cccc(Oc3ccc(Cl)cc3)c2)C(C)C)ccc1F [Compound 397] | < 100 µg | < 0.1% | 0.0019% | > 0.01%
13 | CC(C)C(=Nc1ccc(F)c(Br)c1)OCc1cccc(Oc2ccc(Cl)cc2)c1 [Compound 398] | < 100 µg | < 0.1% | < 0.1% | > 0.01%
14 | Cc1cc(N=C(OCc2ccc(F)c(Oc3ccc(Cl)cc3)c2)C(C)C)ccc1F [Compound 399] | < 100 µg | 0.025% | 0.0012% | > 0.01%
15 | Cc1cc(N=C(OCc2ccc(F)c(Oc3ccccc3)c2)C(C)C)ccc1F [Compound 400] | < 100 µg | 0.025% | 0.0007% | > 0.01%
16 | Cc1cccc(N=C(OCc2ccc(F)c(Oc3ccc(Cl)cc3)c2)C(C)C)c1 [Compound 401] | < 100 µg | 0.04% | 0.0017% | > 0.01%
17 | Cc1ccc(N=C(OCc2cccc(Oc3ccc(F)cc3)c2)C(C)C)cc1Cl [Compound 402] | < 100 µg | > 0.1% | > 0.1% | > 0.01%
18 | Cc1ccc(N=C(OCc2cccc(Oc3ccc(Cl)cc3)c2)C(C)C)cc1Cl [Compound 403] | < 100 µg | > 0.1% | > 0.1% | > 0.01%
19 | Cc1ccc(N=C(OCc2ccc(F)c(Oc3ccc(Cl)cc3)c2)C(C)C)cc1Cl [Compound 404] | < 100 µg | 0.025% | > 0.1% | > 0.01%
